Measurements as given in ChEMBL document CHEMBL3596163, “Discovery of imidazo[1,5-a]pyridines and -pyrimidines as potent and selective RORc inverse agonists” (Bioorg Med Chem Lett, 2015).
Active and inactive are the calls of the source. No cut-off for these calls is given here.

How the values were obtained:
[1] = target: T1, Nuclear receptor ROR-beta (Homo sapiens, UniProt Q92753); experiment: Inverse agonist activity at GAL4-fused human RORb expressed in HEK293T cells assessed as suppression of basal transcriptional activity after 20 hrs by dual-glo luciferase reporter gene assay; format: cell-based, HEK-293T
T1 sequence (Q92753 whole entry): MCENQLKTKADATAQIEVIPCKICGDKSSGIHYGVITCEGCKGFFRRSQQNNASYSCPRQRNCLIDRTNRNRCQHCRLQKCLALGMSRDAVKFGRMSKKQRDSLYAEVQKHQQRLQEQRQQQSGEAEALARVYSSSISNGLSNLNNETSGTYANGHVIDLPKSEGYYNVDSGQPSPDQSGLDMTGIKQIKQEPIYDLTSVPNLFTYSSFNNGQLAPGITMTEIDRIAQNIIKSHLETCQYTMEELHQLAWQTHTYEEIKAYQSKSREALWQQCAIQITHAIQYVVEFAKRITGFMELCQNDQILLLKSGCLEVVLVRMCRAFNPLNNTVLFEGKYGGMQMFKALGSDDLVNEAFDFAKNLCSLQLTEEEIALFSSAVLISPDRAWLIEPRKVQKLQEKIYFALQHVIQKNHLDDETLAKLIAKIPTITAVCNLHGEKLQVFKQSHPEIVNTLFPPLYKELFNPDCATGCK

[2] = target: T2, Oxysterols receptor LXR-alpha (Homo sapiens, UniProt Q13133); experiment: Agonist activity at GAL4-fused human LXRalpha expressed in HEK293T cells assessed as activation of basal transcriptional activity after 20 hrs by dual-glo luciferase reporter gene assay; format: cell-based, HEK-293T
T2 sequence (Q13133 whole entry): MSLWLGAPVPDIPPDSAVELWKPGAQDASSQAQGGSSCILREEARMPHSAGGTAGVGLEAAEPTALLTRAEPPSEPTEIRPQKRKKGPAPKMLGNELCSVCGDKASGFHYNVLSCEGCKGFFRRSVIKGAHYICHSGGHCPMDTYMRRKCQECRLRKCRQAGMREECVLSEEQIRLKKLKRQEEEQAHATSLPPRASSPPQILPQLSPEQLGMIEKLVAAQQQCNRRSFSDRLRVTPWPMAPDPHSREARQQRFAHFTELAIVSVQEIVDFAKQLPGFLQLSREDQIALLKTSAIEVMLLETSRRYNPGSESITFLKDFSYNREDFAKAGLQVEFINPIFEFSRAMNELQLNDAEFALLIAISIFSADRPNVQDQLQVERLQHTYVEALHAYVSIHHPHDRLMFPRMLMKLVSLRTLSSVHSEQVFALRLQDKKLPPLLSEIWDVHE

[3] = target: T3, Nuclear receptor subfamily 1 group I member 2 (Homo sapiens, UniProt O75469); experiment: Agonist activity at GAL4-fused human PXR expressed in HEK293T cells assessed as activation of basal transcriptional activity after 20 hrs by dual-glo luciferase reporter gene assay; format: cell-based, HEK-293T
T3 sequence (O75469 whole entry): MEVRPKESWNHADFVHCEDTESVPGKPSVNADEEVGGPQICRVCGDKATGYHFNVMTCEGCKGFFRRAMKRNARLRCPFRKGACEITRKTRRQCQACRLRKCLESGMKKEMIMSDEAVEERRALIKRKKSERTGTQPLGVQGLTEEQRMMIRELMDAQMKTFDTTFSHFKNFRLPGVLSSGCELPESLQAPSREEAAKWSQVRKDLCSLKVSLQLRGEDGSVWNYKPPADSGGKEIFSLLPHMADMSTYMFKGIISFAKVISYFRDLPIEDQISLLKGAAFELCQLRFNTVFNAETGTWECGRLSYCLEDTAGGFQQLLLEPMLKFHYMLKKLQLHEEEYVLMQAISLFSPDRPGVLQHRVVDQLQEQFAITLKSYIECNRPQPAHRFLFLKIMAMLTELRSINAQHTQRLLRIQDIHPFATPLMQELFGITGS

[4] = target: T4, Oxysterols receptor LXR-alpha (Homo sapiens) (UniProt Q13133); experiment: Antagonist activity at GAL4-fused human LXRalpha expressed in HEK293T cells assessed as inhibition of T0901317-induced basal transcriptional activity up to 10 uM after 20 hrs by dual-glo luciferase reporter gene assay; format: cell-based; settings: HEK-293T
T4 sequence (whole entry): T2 sequence (Q13133 whole entry)

[5] = tested on: PBMC; experiment: Inhibition of IFNgamma production in human PBMC after 48 hrs by Sandwich ELISA; format: functional, cell-based
[6] = target: T5, Nuclear receptor ROR-gamma (Homo sapiens, UniProt P51449); experiment: Inverse agonist activity at N-terminal 6xHis-tagged human RORc ligand binding domain (241 to 486) expressed in bacterial expression system assessed as inhibition of SRC1 co-activator peptide recruitment after 3 hrs by TR-FRET analysis; format: functional
T5 sequence (P51449 whole entry): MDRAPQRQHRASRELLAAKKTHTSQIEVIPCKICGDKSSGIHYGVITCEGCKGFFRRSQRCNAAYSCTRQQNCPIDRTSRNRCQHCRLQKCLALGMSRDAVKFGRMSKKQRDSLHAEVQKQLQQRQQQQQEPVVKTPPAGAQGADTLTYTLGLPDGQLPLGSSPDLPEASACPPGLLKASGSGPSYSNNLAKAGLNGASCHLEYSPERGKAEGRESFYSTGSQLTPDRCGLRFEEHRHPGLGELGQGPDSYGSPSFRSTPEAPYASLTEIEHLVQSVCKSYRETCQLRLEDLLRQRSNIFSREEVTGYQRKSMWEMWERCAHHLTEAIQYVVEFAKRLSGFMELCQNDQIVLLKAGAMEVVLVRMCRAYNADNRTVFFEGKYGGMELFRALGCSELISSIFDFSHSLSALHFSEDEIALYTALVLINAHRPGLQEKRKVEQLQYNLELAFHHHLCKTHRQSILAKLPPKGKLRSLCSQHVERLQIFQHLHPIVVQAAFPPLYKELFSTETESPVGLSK

[7] = target: T6, Peroxisome proliferator-activated receptor gamma (Homo sapiens, UniProt P37231); experiment: Displacement of fluormone PPARgamma green from GST-tagged human PPARgamma-LBD after 2 hrs by fluorescence polarization assay
T6 sequence (P37231 whole entry): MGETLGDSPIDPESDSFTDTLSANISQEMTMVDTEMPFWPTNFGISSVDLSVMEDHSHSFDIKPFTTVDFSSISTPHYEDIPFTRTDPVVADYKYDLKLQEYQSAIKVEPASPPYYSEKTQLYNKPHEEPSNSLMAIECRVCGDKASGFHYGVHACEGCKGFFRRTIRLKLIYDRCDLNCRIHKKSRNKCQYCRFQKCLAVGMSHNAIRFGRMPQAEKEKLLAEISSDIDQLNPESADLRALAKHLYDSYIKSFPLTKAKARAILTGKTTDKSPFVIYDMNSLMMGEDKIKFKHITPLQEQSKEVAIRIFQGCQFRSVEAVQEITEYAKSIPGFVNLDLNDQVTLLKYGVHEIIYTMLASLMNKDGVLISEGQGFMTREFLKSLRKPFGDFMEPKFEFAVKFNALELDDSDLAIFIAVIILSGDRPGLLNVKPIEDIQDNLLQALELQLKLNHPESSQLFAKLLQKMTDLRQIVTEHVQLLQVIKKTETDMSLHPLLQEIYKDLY

[8] = target: T5, Nuclear receptor ROR-gamma; experiment: Inverse agonist activity at GAL4-fused human RORc expressed in HEK293T cells assessed as suppression of basal transcriptional activity after 20 hrs by dual-glo luciferase reporter gene assay; format: functional, cell-based, HEK-293T
[9] = tested on: MDCK; experiment: Efflux ratio of apparent permeability from apical to basolateral side over basolateral to apical side in MDCK cells at 2 uM by LC-MS/MS analysis; format: ADME, cell-based, Canis lupus familiaris; settings: dog

## O=C(O)c1ccc(-c2nc(C(=O)c3c(Cl)cccc3C(F)(F)F)n3ccccc23)cc1
[1]
  EC50: > 10000 nM
[2]
  EC50: > 10000 nM
[3]
  EC50: > 10000 nM
[4]
  inhibition: inactive
[5]
  EC50: > 10000 nM

## O=C(O)c1ccc(-c2nc(C(=O)c3c(Cl)cccc3C3CC3)n3c2CCCC3)c(F)c1
[6]
  EC50: 27 nM
[7]
  IC50: 1300 nM
[8]
  EC50: 26 nM
[1]
  EC50: > 10000 nM
[2]
  EC50: > 10000 nM
[3]
  EC50: > 10000 nM
[4]
  inhibition: inactive
[5]
  EC50: > 10000 nM

## O=C(O)c1ccc(-c2nc(C(=O)c3c(Cl)cccc3C3CC3)n3cccnc23)cc1O
[9]
  Ratio: < 2
[6]
  EC50: 2 nM
[7]
  IC50: 3400 nM
[8]
  EC50: 13 nM
[1]
  EC50: > 10000 nM
[2]
  EC50: > 10000 nM
[3]
  EC50: > 10000 nM
[4]
  inhibition: inactive
[5]
  EC50: > 10000 nM

## O=C(O)c1ccc(-c2nc(C(=O)c3c(Cl)cccc3C(F)(F)F)n3ccccc23)cc1O
[9]
  Ratio: < 2
[6]
  EC50: 2 nM
[7]
  IC50: 650 nM
[8]
  EC50: 4 nM
[1]
  EC50: > 10000 nM
[2]
  EC50: > 10000 nM
[3]
  EC50: > 10000 nM
[4]
  inhibition: inactive
[5]
  EC50: > 10000 nM

## O=C(O)c1ccc(-c2nc(C(=O)c3c(Cl)cccc3C(F)(F)F)n3ccccc23)c(F)c1
[6]
  EC50: 9 nM
[7]
  IC50: 320 nM
[8]
  EC50: 10 nM
[1]
  EC50: > 10000 nM
[2]
  EC50: > 10000 nM
[3]
  EC50: > 10000 nM
[4]
  inhibition: inactive
[5]
  EC50: > 10000 nM

## O=C(O)c1ccc(-c2nc(C(=O)c3c(Cl)cccc3C(F)(F)F)n3c2CCCC3)c(F)c1
[6]
  EC50: 32 nM
[7]
  IC50: 760 nM
[8]
  EC50: 36 nM
[1]
  EC50: > 10000 nM
[2]
  EC50: > 10000 nM
[3]
  EC50: > 10000 nM
[4]
  inhibition: inactive
[5]
  EC50: > 10000 nM
